The source of these data is patent publication US7994324B2, “2-aminoquinoline derivatives” (Hoffmann-La Roche Inc., priority 2008, dated 2011).

Series [1] deals with T1, recombinant human 5-HT5A receptor (Homo sapiens, UniProt P47898).
T1 construct: expressed in transfected cells; host or cells: HEK-EBNA (Human Embryonic Kidney-EBNA) cells, transient cDNA expression; membranes used
Description: [3H]LSD radioligand binding assay. Particulars: [3H]LSD (approximately 1 nM), membranes from HEK-EBNA cells transiently expressing 5-HT5A receptors; Ki from IC50 by Cheng-Prussoff equation. The method, then: A [^3H]LSD radioligand binding assay was used to determine the affinity of the compounds for the recombinant human 5-HT5A receptor, in membranes from transiently (cDNA) expressed 5-HT5A receptors in Human Embryonic Kidney-EBNA (HEK-EBNA) cells. Assay buffer consisted of Tris (50 mM) buffer containing 1 mM EGTA, 10 mM MgCl2 (pH 7.4) and 10 μM pargyline. The binding assay was carried out in 96-well-plates in the presence of [^3H]LSD (approximately 1 nM), approximately 2 μg/well of membrane protein, and 0.5 mg of Ysi-poly-1-lysine SPA beads in a final volume of 200 μl of buffer. Non-specific binding was defined using methiothepin 2 μM. Compounds were tested at 10 concentrations. All assays were conducted in duplicate and repeated at least two times. Assay plates were incubated for 120 min at room temperature before centrifugation. Bound ligand was determined using a Packard Topcount scintillation counter. IC50 values were calculated using a non-linear curve fitting program and Ki values calculated using the Cheng-Prussoff equation.

T1 sequence (P47898 whole entry): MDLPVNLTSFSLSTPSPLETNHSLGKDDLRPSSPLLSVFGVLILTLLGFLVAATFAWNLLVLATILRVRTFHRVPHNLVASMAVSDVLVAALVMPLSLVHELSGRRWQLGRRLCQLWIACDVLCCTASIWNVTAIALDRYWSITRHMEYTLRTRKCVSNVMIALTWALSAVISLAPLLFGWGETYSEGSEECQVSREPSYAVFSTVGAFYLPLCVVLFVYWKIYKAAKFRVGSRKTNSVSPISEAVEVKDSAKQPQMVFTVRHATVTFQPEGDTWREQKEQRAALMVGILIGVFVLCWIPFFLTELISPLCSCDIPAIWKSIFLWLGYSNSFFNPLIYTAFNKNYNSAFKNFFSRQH

In the case of `O=C(Cc1cc(F)cc(F)c1)Nc1cccc2nc(N[C@@H]3CCc4ccccc43)ccc12` [Example 59, 2-(3,5-Difluoro-phenyl)-N-[2-((R)-indan-1-ylamino)-quinolin-5-yl]-acetamide], the melting point – broadly, the temperature of the solid-liquid transition – is 221 °C. Further, the Ki (commonly a measure of affinity in units of concentration, obtained from inhibition or displacement) in series [1] is 28.7 nM.

Turning to `O=C(Cc1ccc(Cl)cc1)Nc1cccc2nc(N[C@@H]3CCc4ccccc43)ccc12` [Example 60, 2-(4-Chloro-phenyl)-N-[2-((R)-indan-1-ylamino)-quinolin-5-yl]-acetamide], the melting point was found to be 170 °C. Moreover, the Ki in series [1] came out at 5.5 nM.
